Data published in US9399625B2, “Acridone compounds” (Oregon Health & Science University, priority 2006, dated 2016).
“Also recorded” adds a separate entry of the source. Like-named read-outs stand apart in the source and are kept apart here.

Key:
[1] = system: MDR P. falciparum strain W2; experiment: In vitro chemosensitization to chloroquine (RMI), strain W2; type: cell-based; conditions: Plasmodium falciparum, W2, read-out: IC50 of CQ in combination with 5 μM of selected drug, W2
[2] = system: MDR P. falciparum strain Dd2; experiment: In vitro chemosensitization to chloroquine (RMI), strain Dd2; type: cell-based; conditions: Plasmodium falciparum, DD2, read-out: IC50 of CQ in combination with 5 μM of selected drug, Dd2
[3] = Heme-binding affinity (spectrophotometric titration); conditions: Table 3
Text: With continued reference to FIG. 1, panel B illustrates the spectrophotometric titration curve of the heme:3,6-bis-ε-(N,N-diethylamino)-amyloxy xanthone (C5) complex. The apparent binding constant was derived from the best fit (solid line) of a 1:1 (heme dimer:C5) association model. […] Panels A and B show the fluorescence localization of C5 and LysoTracker Red, respectively.

[4] = system: MDR (Dd2) strain of P. falciparum; experiment: In vitro chemosensitizing effects of acridones (RMI), Dd2; type: cell-based
Text: (§1) Antimalarial drug combinations can be assessed in a number of ways. For example, the response modification index (RMI) can be calculated by the following formula: RMI=IC50 of drug A in the presence of drug B/IC50 of drug A alone, where drug A is an existing antimalarial and B is a single sub-inhibitory concentration of the acridone candidate. An RMI less than 1.0 represents chemosensitization and possible synergy. A second method of evaluating combination therapies is Fractional Inhibitory Concentration, (e.g., FIC50=[IC50 of Drug A in the presence of a fixed amount of Drug B]/[IC50 of Drug A alone]). RMI and FIC are helpful measures for side-by-side comparison of multiple chemosensitizer drugs at fixed concentrations, but neither distinguishes between additive and synergistic effects, or describes effects over a wide concentration range. Standard FIC indices (FIC of Drug A+FIC of Drug B) distinguish synergistic, additive and antagonistic interactions, but are dependent on the correct estimation of the expected effect of the fixed test drug.

[5] = system: CQS (D6) strain of P. falciparum; experiment: In vitro chemosensitizing effects of acridones (RMI), D6; type: cell-based
Text: as §1

[6] = system: CQ-sensitive D6 strain of P. falciparum; experiment: In vitro antimalarial activity, SYBR Green MSF assay, D6; type: cell-based
Text: (§2) This example describes the screening of disclosed antimalarial acridones against the CQ-sensitive D6 strain and the MDR Dd2 strain of P. falciparum for in vitro antimalarial activity.

[7] = In vitro heme aggregation assay; conditions: 25 mM phosphate buffer, pH 4.8, 30 minutes at room temperature
Description: This example describes the in vitro inhibition of heme aggregation by xanthone 2,3,4,5,6-pentahydroxyxanthone. Conditions: 25 mM Phosphate buffer, pH 5.2, 1 hour incubation at 37° C. Further details of this assay are described by Ignatushchenko et al. in Xanthones as antimalarial agents; studies of a possible mode of action.
This example describes visual evidence that acridones disclosed herein form soluble complexes with heme under mildly acidic conditions. […] Employing the same assay conditions, heme was mixed with T2 or T3.5 under mildly acidic conditions (25 mM phosphate buffer, pH 4.8) and monitored. […] Without being limited to theory, it is believed that for some compounds inhibition of heme aggregation in vitro can be correlated with inhibition of hemozoin formation in vivo.

[8] = system: MDR Dd2 strain of P. falciparum; experiment: In vitro antimalarial activity, SYBR Green MSF assay, Dd2; type: cell-based
Text: as §2
As shown in Table 3 and Table 4, selected soluble acridone derivatives were screened for antimalarial activity against the CQ-sensitive D6 and the MDR Dd2 strains of P. falciparum.

[9] = system: late trophozoites in PRBCs; experiment: Morphological changes in acridone treated parasites (blood smears, light microscopy); conditions: compared to drug-free controls
Text: This example provides morphological changes in acridone treated parasites. […] These preliminary evaluations of blood smears by light microscopy indicate that acridones cause alterations in parasite morphology and viability.

[10] = system: murine splenic lymphocytes (MSLCs); experiment: Cytotoxicity by Alamar Blue assay; conditions: for IVTI: ratio of cytotoxicity IC50 (vs. MSLCs) to antimalarial IC50 against D6; for IC50: cytotoxicity
[11] = target: T1, recombinant human serotonin transporter (hSERT) (Homo sapiens, UniProt P31645); experiment: [125I]RTI-55 binding, HEK-hSERT
T1 construct: expressed in transfected cells
T1 sequence (P31645 whole entry): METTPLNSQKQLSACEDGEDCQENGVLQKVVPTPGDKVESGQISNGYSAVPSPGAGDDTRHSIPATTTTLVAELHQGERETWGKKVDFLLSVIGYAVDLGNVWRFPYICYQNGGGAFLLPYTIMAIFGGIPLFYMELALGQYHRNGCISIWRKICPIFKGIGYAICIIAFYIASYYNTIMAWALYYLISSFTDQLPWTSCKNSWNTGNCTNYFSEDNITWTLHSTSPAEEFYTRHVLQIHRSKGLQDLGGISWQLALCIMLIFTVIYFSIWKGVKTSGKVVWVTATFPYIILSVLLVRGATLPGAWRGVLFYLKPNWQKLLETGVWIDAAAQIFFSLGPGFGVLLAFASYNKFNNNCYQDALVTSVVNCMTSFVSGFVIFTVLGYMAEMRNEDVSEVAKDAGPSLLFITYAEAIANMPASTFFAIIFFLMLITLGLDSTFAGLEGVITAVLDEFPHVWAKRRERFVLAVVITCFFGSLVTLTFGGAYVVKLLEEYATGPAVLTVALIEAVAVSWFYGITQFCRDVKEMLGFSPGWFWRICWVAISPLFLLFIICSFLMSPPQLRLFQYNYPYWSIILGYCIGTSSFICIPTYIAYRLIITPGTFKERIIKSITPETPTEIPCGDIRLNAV

[12] = target: T2, recombinant human norepinephrine transporter (hNET) (Homo sapiens, UniProt P23975); experiment: [125I]RTI-55 binding, HEK-hNET
T2 construct: expressed in transfected cells
T2 sequence (P23975 whole entry): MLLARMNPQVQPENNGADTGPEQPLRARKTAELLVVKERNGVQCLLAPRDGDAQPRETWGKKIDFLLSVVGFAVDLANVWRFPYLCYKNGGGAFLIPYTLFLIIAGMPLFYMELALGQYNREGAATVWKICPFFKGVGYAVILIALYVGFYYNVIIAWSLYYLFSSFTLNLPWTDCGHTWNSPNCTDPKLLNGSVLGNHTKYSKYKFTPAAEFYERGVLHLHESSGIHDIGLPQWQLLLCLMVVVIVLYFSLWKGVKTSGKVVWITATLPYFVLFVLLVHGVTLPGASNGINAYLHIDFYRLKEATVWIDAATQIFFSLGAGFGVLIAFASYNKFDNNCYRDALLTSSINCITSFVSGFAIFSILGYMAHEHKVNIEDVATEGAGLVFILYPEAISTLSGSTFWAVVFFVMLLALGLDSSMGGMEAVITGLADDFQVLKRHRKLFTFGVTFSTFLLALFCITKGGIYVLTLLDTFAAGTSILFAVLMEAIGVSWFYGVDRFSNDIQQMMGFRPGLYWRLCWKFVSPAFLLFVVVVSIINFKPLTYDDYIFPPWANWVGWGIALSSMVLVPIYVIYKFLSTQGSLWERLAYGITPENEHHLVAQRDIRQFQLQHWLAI

P. yoelii (K) = experiment: Curative efficacy vs patent infection, three once-daily doses (adapted 6-day Thompson test); conditions: for ED50 and ED90, gavage (ig) dosing, in words: three once-daily doses
P. berghei (ANKA) = experiment: Efficacy vs patent P. berghei infection in mice
[13] = system: CQ-sensitive P. yoelii (strain K); experiment: 4-day suppressive test in female CF-1 mice; type: in vivo
Description: This example describes evaluation of the in vivo antimalarial efficacy of the disclosed acridones against CQ-sensitive P. yoelii (strain K) in female CF-1 mice. Illustrated in FIG. 2, are the results of a 4-day suppressive test with acridone T2 (3-(2-diethylaminoethoxy)-6-chloro-9-acridone)) in PBS administered intragastrically (ig) by gavage one hour after infection and then once daily, 24, 48 and 72 hours later.
This example describes evaluation of acridones in rodent models of blood-stage malaria.

[14] = target: T3, recombinant human dopamine transporter (hDAT) (Homo sapiens, UniProt Q01959); experiment: [125I]RTI-55 binding, HEK-hDAT
T3 construct: expressed in transfected cells
T3 sequence (Q01959 whole entry): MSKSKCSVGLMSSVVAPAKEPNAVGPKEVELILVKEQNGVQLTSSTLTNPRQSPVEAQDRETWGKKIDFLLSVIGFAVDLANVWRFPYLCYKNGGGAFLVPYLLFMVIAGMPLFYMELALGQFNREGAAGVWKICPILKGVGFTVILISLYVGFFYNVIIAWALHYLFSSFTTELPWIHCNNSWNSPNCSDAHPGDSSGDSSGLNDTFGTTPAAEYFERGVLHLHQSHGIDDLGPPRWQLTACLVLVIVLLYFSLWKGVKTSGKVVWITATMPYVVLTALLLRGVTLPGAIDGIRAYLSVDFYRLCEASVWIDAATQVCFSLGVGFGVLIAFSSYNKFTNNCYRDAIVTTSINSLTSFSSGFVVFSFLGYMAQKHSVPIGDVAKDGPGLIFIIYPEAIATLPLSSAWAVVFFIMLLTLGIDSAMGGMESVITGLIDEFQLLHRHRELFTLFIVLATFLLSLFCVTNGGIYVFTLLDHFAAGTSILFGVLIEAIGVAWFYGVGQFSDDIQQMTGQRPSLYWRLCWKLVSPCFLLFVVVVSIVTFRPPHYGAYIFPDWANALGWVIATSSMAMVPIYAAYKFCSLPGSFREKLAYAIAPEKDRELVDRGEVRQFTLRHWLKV

[15] = General toxicity in treated mice; conditions: 256 mg/kg/day×3 days
P. yoelii = experiment: Single-dose ig efficacy after patent infection in mice; type: in vivo; conditions: single ig dose 100 mg/kg; HCl salt
Description: The single-dose efficacy of acridone compounds also was assessed in vivo using ig treatment after patent infection. Test compounds were administered as a single dose at 100 mg/kg (30 mg/kg for CQ) 24 hours after P. yoelii infection, and blood smears were collected 48 and 72 hours post-treatment.

P. yoelii sporozoites = experiment: Prophylactic efficacy, murine sporozoite-induced malaria model; type: in vivo; conditions: 160 mg/kg ig on days −1, 0 and 1
Description: This example evaluates the prophylactic efficacy of the acridone T2. T2 was evaluated in a murine P. yoelii sporozoite-induced malaria model to determine prophylactic efficacy.
Mice were treated with 160 mg/kg ig, on days −1, 0, and 1 with injection of 250,000 sporozoites on day 0.

MDR P. falciparum Dd2 = experiment: Fixed-ratio combination (isobologram) with quinoline antimalarials, Dd2; type: cell-based
Description: In one embodiment, synergism is assessed herein using fixed-ratio combinations that provide information over a wide range of drug concentrations. […] If these stock solutions were termed Drug A and Drug B, then six final stock solutions were prepared from this initial stock: Drug A alone, Drug B alone, and volume:volume mixtures of Drug A and B in the following ratios: 4:1, 3:2, 2:3, and 1:4. Two-fold dilutions of each of the six final stock solutions were done robotically across a 96-well plate in quadruplicate. Subsequent steps were typical of standard drug-susceptibility methods. […] The data pointed from all six curves were then analyzed using Calcusyn software (commercially available from BioSoft, Cambridge, UK) for determination of synergy. Output from this analysis included FIC values used to plot isobolograms as well as a rigorously determined synergy index, termed the combination index (CI) (Calcusyn). FIC50 isobolograms, CI's and tabulation of IC90 component drug concentrations were reported.
The combinations of the acridones T3.5 and T2 with quinine were assessed for synergism.
FIG. 6 is an isobologram charting the efficacy of quinine in combination with T3.5 in vitro against CQ-sensitive (D6) and MDR (Dd2) P. falciparum.

[16] = system: QN-sensitive P. yoelii (K); experiment: In vivo synergism T3.5 and quinine, 6-day Thompson test in mice; conditions: alone or fixed-ratio combination (dose of each)
Description: In vivo synergism was assessed using the 6-day Thompson test in mice infected with QN-sensitive P. yoelii (K), comparing the efficacy of T3.5 alone, QN alone and T3.5:QN combinations (Table 7). Dosages were established using a rigorous fixed-ratio combination dosing protocol and results were assessed using Calcusyn software to determine synergy. As in the case of the in vitro combination, there was evident in vivo synergism.

[17] = Plasmodium falciparum, D6, Table 2, average of 4 independent experiments, read-out: IC50, D6
[18] = Plasmodium falciparum, D6, Table 3, MSF assay, read-out: IC50 P. falciparum D6
[19] = Plasmodium falciparum, DD2, Table 2, average of 4 independent experiments, read-out: IC50, Dd2
[20] = Plasmodium falciparum, DD2, Table 3, MSF assay, read-out: IC50 P. falciparum Dd2

## CCN(CC)CCCC(C)Nc1ccnc2cc(Cl)ccc12 (centres unmarked) [Chloroquine, reference compound]
[1]
  IC50: 290 nM
[2]
  IC50: 100 nM
[3]
  Heme-binding Ka: 5.5 10^4 M^−1
[4]; Plasmodium falciparum, DD2, read-out: IC50 of CQ, Dd2
  IC50: 124 nM
[5]; Plasmodium falciparum, D6, read-out: IC50 of CQ, D6
  IC50: 8.4 nM
[6]; Plasmodium falciparum, D6, read-out: IC50, D6
  IC50: 6.8 nM
[6]; Plasmodium falciparum, D6, read-out: IC50 P. falciparum D6
  IC50: 8.4 nM
[6]; Plasmodium falciparum, D6, read-out: IC50 of CQ, CQ-sensitive strain D6
  IC50: 15 nM
[7]
  formation of heme aggregates: fails to prevent heme aggregation
[8]; Plasmodium falciparum, DD2, read-out: IC50, Dd2
  IC50: 132 nM
[8]; Plasmodium falciparum, DD2, read-out: IC50 P. falciparum Dd2
  IC50: 124 nM

## CCN(CC)CCOc1ccc2c(=O)c3ccccc3[nH]c2c1 [T1, 3-(2-diethylaminoethoxy)-9-acridone]
[6]; [17]
  IC50: 167 nM
[6]; [18]
  IC50: 167 nM
[9]
  appearance of treated late trophozoites: pale staining with loss of intracellular definition and fragmented hemozoin
[10]
  IVTI: >150
[10]; read-out: IC50, MSLCs, Table 2
  IC50: > 25000 nM
[10]; read-out: IC50 MSLCs, Table 3
  IC50: > 25000 nM
[8]; [19]
  IC50: 159 nM
[8]; [20]
  IC50: 159 nM

## CCN(CC)CCOc1ccc2c(=O)c3ccc(Cl)cc3[nH]c2c1 [T2, 3-(2-diethylaminoethoxy)-6-chloro-9-acridone]
[11]
  Ki: > 10000 nM
[12]
  Ki: 5850 nM
[3]
  Heme-binding Ka: 4.3 10^4 M^−1
P. yoelii (K); 256 mg/kg/day
  long-term outcome (parasitemia at 30 days, cure): long-term cure
P. yoelii (K)
  ED50 and ED90, gavage (ig) dosing, in words: comparable
P. yoelii (K); ip once daily for three days
  ED50 (ip): 38 mg/kg/day
  ED90 (ip): 66 mg/kg/day
P. berghei (ANKA); P. berghei (ANKA)
  ED90: 80 mg/kg/day
P. berghei (ANKA); patent P. berghei (ANKA) infection, by gavage
  ED50: 55 mg/kg/day
[13]; 200 mg/kg/day
  mice parasite-free to the end of the observation period: all of the four mice in that group remained parasite-free
[13]; 200 mg/kg/day, assessed 24 hours after the last dose
  suppression of parasitemia: completely suppressed parasitemia; also recorded: complete suppression
[13]; Plasmodium yoelii, po, 96 h, ig by gavage, once daily, 4 days
  ED50: 27.1 mg/kg
[13]; ig by gavage, once daily, 4 days
  ED90: 42 mg/kg
[14]
  Ki: > 10000 nM
[6]; [17]
  IC50: 18 nM
[6]; [18]
  IC50: 26 nM
[15]
  weight loss: 10%
P. yoelii
  reduction of parasitemia at 72 hours: greater than 90%
P. yoelii sporozoites
  toxicity: No toxicity was observed
  treated animals parasite-free on days 6, 11 and 14: all 5 treated animals to be parasite-free
[10]; 25 μM
  cytotoxicity at the highest tested concentration: no evidence of cytotoxicity
[10]
  IVTI: >1389
[10]; read-out: IC50, MSLCs, Table 2
  IC50: > 25000 nM
[10]; read-out: IC50 MSLCs, Table 3
  IC50: > 25000 nM
[7]
  formation of heme aggregates: prevent the formation of heme aggregates
[8]; [19]
  IC50: 17 nM
[8]; [20]
  IC50: 33 nM
MDR P. falciparum Dd2; isobolar analysis
  interaction with quinine: not and no evidence of synergy

## quinine [QN, reference compound]
P. yoelii (K)
  ED50 and ED90, gavage (ig) dosing, in words: comparable
[4]; QN alone or with 50 nM chemosensitizer, read-out: IC50 of QN, Dd2
  IC50: 87 nM
[5]; QN alone or with 50 nM chemosensitizer, read-out: IC50 of QN, D6
  IC50: 20 nM
[6]; Table 4, read-out: IC50 P. falciparum D6
  IC50: 19 nM
[16]
  ED50 dose: 39 mg/kg/day
  ED75 dose: 57 mg/kg/day
  ED90 dose: 85 mg/kg/day
[8]; Table 4, read-out: IC50 P. falciparum Dd2
  IC50: 87 nM
MDR P. falciparum Dd2; with 20-200 nM T3.5
  quinine concentration giving 90% growth inhibition in combination: 7 to 70 nM
